Test results reported in PubChem BioAssay AID1963963 (Molecular Pharmacology Branch, DTP, NCI, 2024).
pIC50: −log10 of the molar value.

System: 958667-338-R-J2-PDC tumor spheroids viability
Test: Anticancer human tumor 958667-338-R-J2-PDC patient-derived colon adenocarcinoma cell line growth inhibition [PI3K]
Conditions: spheroids with HUVEC and MSC; for pIC50: curve of first compound; for viability, T/C: stronger effect = lower value
Method in brief: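 Stroma-containing spheroids: tumor line, pooled-donor HUVEC, hMSC. Treatments: targeted agents with PI3K inhibitors. Dosing: clinically relevant, half-log spacing, 10 microM ceiling without known Cmax. Read-out: cell viability.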

[1] = second compound 0.0316 µM, first compound 0.0316 µM
[2] = second compound 0.0316 µM, first compound 0.1 µM
[3] = second compound 0.0316 µM, first compound 0.316 µM
[4] = second compound 0.0316 µM, first compound 1 µM
[5] = second compound 0.1 µM, first compound 0.0316 µM
[6] = second compound 0.1 µM, first compound 0.1 µM
[7] = second compound 0.1 µM, first compound 0.316 µM
[8] = second compound 0.1 µM, first compound 1 µM
[9] = second compound 0.316 µM, first compound 0.0316 µM
[10] = second compound 0.316 µM, first compound 0.1 µM
[11] = second compound 0.316 µM, first compound 0.316 µM
[12] = second compound 0.316 µM, first compound 1 µM
[13] = second compound 1 µM, first compound 0.0316 µM
[14] = second compound 1 µM, first compound 0.1 µM
[15] = second compound 1 µM, first compound 0.316 µM
[16] = second compound 1 µM, first compound 1 µM
[17] = second compound 3.16 µM, first compound 0.0316 µM
[18] = second compound 3.16 µM, first compound 0.1 µM
[19] = second compound 3.16 µM, first compound 0.316 µM
[20] = second compound 3.16 µM, first compound 1 µM
[21] = second compound 10 µM, first compound 0.0316 µM
[22] = second compound 10 µM, first compound 0.1 µM
[23] = second compound 10 µM, first compound 0.316 µM
[24] = second compound 10 µM, first compound 1 µM
[25] = second compound 0.0316 µM, first compound 3.16 µM
[26] = second compound 0.0316 µM, first compound 10 µM
[27] = second compound 0.1 µM, first compound 3.16 µM
[28] = second compound 0.1 µM, first compound 10 µM
[29] = second compound 0.316 µM, first compound 3.16 µM
[30] = second compound 0.316 µM, first compound 10 µM
[31] = second compound 1 µM, first compound 3.16 µM
[32] = second compound 1 µM, first compound 10 µM
[33] = second compound 3.16 µM, first compound 3.16 µM
[34] = second compound 3.16 µM, first compound 10 µM
[35] = second compound 10 µM, first compound 3.16 µM
[36] = second compound 10 µM, first compound 10 µM
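Further: spheroids exposed to compounds for seven days before readout.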

**Q.** With `CCN1CCN(Cc2ccc(Nc3ncc(F)c(-c4cc(F)c5nc(C)n(C(C)C)c5c4)n3)nc2)CC1` + CC(Nc1ncnc2nc[nH]c12)c1cc2cccc(Cl)c2c(=O)n1-c1ccccc1 as the molecule, how does the pIC50 (second compound 0.0316 µM) read?
**A.** < 6.00

**Q.** And the pIC50 (second compound 0.1 µM)?
**A.** < 6.00

**Q.** And the pIC50 (second compound 0.316 µM)?
**A.** < 6.00

**Q.** And the pIC50 (second compound 1 µM)?
**A.** < 6.00

**Q.** And the pIC50 (second compound 3.16 µM)?
**A.** < 6.00

**Q.** What about the pIC50 (second compound 10 µM) of the same molecule?
**A.** < 6.00

**Q.** And the viability, T/C (second compound 0.0316 µM, first compound 0.00316 µM)?
**A.** 91.2%

**Q.** And the viability, T/C (second compound 0.0316 µM, first compound 0.01 µM)?
**A.** 98.2%

**Q.** What about the viability, T/C [1] of the same molecule?
**A.** 98.8%

**Q.** What about the viability, T/C [2] of the same molecule?
**A.** 76.2%

**Q.** And the viability, T/C [3]?
**A.** 66.1%

**Q.** What about the viability, T/C [4] of the same molecule?
**A.** 63.4%

**Q.** What about the viability, T/C (second compound 0.1 µM, first compound 0.00316 µM) of the same molecule?
**A.** 87.2%

**Q.** What about the viability, T/C (second compound 0.1 µM, first compound 0.01 µM) of the same molecule?
**A.** 88.9%

**Q.** And the viability, T/C [5]?
**A.** 87.3%

**Q.** And the viability, T/C [6]?
**A.** 83%

**Q.** What about the viability, T/C [7] of the same molecule?
**A.** 68.8%

**Q.** What about the viability, T/C [8] of the same molecule?
**A.** 65.2%

**Q.** What about the viability, T/C (second compound 0.316 µM, first compound 0.00316 µM) of the same molecule?
**A.** 89.2%

**Q.** What about the viability, T/C (second compound 0.316 µM, first compound 0.01 µM) of the same molecule?
**A.** 97%

**Q.** And the viability, T/C [9]?
**A.** 82.2%

**Q.** What about the viability, T/C [10] of the same molecule?
**A.** 70.8%

**Q.** And the viability, T/C [11]?
**A.** 71.4%

**Q.** What about the viability, T/C [12] of the same molecule?
**A.** 71.2%

**Q.** What about the viability, T/C (second compound 1 µM, first compound 0.00316 µM) of the same molecule?
**A.** 102%

**Q.** What about the viability, T/C (second compound 1 µM, first compound 0.01 µM) of the same molecule?
**A.** 71.1%

**Q.** What about the viability, T/C [13] of the same molecule?
**A.** 86.2%

**Q.** And the viability, T/C [14]?
**A.** 66.1%

**Q.** And the viability, T/C [15]?
**A.** 69%

**Q.** What about the viability, T/C [16] of the same molecule?
**A.** 66.2%

**Q.** And the viability, T/C (second compound 3.16 µM, first compound 0.00316 µM)?
**A.** 108%

**Q.** What about the viability, T/C (second compound 3.16 µM, first compound 0.01 µM) of the same molecule?
**A.** 89.7%

**Q.** And the viability, T/C [17]?
**A.** 84%

**Q.** And the viability, T/C [18]?
**A.** 65.5%

**Q.** And the viability, T/C [19]?
**A.** 64%

**Q.** And the viability, T/C [20]?
**A.** 55.9%

**Q.** And the viability, T/C (second compound 10 µM, first compound 0.00316 µM)?
**A.** 90%

**Q.** What about the viability, T/C (second compound 10 µM, first compound 0.01 µM) of the same molecule?
**A.** 82.8%

**Q.** And the viability, T/C [21]?
**A.** 77.8%

**Q.** What about the viability, T/C [22] of the same molecule?
**A.** 57.8%

**Q.** What about the viability, T/C [23] of the same molecule?
**A.** 57.8%

**Q.** What about the viability, T/C [24] of the same molecule?
**A.** 53.9%

**Q.** What does the source list for `C=CC(=O)N1CCN(c2nc(=O)n(-c3c(C)ccnc3C(C)C)c3nc(-c4c(O)cccc4F)c(F)cc23)C(C)C1` (stereo unspecified) + Cc1nc(NC(=O)N2CCCC2C(N)=O)sc1-c1ccnc(C(C)(C)C(F)(F)F)c1?
**A.** pIC50 (second compound 0.0316 µM): < 5.00; pIC50 (second compound 0.1 µM): < 5.00; pIC50 (second compound 0.316 µM): < 5.00; pIC50 (second compound 1 µM): < 5.00; pIC50 (second compound 3.16 µM): < 5.00; pIC50 (second compound 10 µM): < 5.00; viability, T/C [1]: 94.5%; viability, T/C [2]: 100%; viability, T/C [3]: 96.8%; viability, T/C [4]: 114%; viability, T/C [25]: 126%; viability, T/C [26]: 112%; viability, T/C [5]: 94.8%; viability, T/C [6]: 111%; viability, T/C [7]: 96.6%; viability, T/C [8]: 110%; viability, T/C [27]: 129%; viability, T/C [28]: 107%; viability, T/C [9]: 97.9%; viability, T/C [10]: 86.9%; viability, T/C [11]: 94.7%; viability, T/C [12]: 113%; viability, T/C [29]: 94.7%; viability, T/C [30]: 84.7%; viability, T/C [13]: 94%; viability, T/C [14]: 76.7%; viability, T/C [15]: 107%; viability, T/C [16]: 83%; viability, T/C [31]: 88.5%; viability, T/C [32]: 85.2%; viability, T/C [17]: 80.4%; viability, T/C [18]: 73.5%; viability, T/C [19]: 68.6%; viability, T/C [20]: 73.3%; viability, T/C [33]: 93.5%; viability, T/C [34]: 82.2%; viability, T/C [21]: 69.1%; viability, T/C [22]: 60.5%; viability, T/C [23]: 48.8%; viability, T/C [24]: 63.5%; viability, T/C [35]: 65.8%; viability, T/C [36]: 68.9%

**Q.** Which results are given for `CNC(=O)c1ccc(N2C(=S)N(c3ccc(C#N)c(C(F)(F)F)c3)C(=O)C2(C)C)cc1F` + CC(Nc1ncnc2nc[nH]c12)c1cc2cccc(Cl)c2c(=O)n1-c1ccccc1?
**A.** pIC50 (second compound 0.0316 µM): < 5.00; pIC50 (second compound 0.1 µM): < 5.00; pIC50 (second compound 0.316 µM): < 5.00; pIC50 (second compound 1 µM): < 5.00; pIC50 (second compound 3.16 µM): < 5.00; pIC50 (second compound 10 µM): < 5.00; viability, T/C [1]: 103%; viability, T/C [2]: 94.7%; viability, T/C [3]: 105%; viability, T/C [4]: 101%; viability, T/C [25]: 113%; viability, T/C [26]: 99.2%; viability, T/C [5]: 119%; viability, T/C [6]: 98.7%; viability, T/C [7]: 87.1%; viability, T/C [8]: 83.5%; viability, T/C [27]: 114%; viability, T/C [28]: 87%; viability, T/C [9]: 103%; viability, T/C [10]: 88.3%; viability, T/C [11]: 101%; viability, T/C [12]: 107%; viability, T/C [29]: 121%; viability, T/C [30]: 107%; viability, T/C [13]: 96.7%; viability, T/C [14]: 91.3%; viability, T/C [15]: 102%; viability, T/C [16]: 96.4%; viability, T/C [31]: 104%; viability, T/C [32]: 94%; viability, T/C [17]: 91.8%; viability, T/C [18]: 86.3%; viability, T/C [19]: 72.7%; viability, T/C [20]: 101%; viability, T/C [33]: 119%; viability, T/C [34]: 84.2%; viability, T/C [21]: 103%; viability, T/C [22]: 96.5%; viability, T/C [23]: 101%; viability, T/C [24]: 87.9%; viability, T/C [35]: 115%; viability, T/C [36]: 74.8%
